{
  "source": "patent US8871753B2",
  "about": "“Macrocyclic compounds and their use as kinase inhibitors” (Incyte Corporation, priority 2008, dated 2014)",
  "assay_type_in_all_cases": "biochemical",
  "key": {"TYK2": {"biological_target": "TYK2 (Homo sapiens, UniProt P29597)", "sequence (P29597 whole entry)": "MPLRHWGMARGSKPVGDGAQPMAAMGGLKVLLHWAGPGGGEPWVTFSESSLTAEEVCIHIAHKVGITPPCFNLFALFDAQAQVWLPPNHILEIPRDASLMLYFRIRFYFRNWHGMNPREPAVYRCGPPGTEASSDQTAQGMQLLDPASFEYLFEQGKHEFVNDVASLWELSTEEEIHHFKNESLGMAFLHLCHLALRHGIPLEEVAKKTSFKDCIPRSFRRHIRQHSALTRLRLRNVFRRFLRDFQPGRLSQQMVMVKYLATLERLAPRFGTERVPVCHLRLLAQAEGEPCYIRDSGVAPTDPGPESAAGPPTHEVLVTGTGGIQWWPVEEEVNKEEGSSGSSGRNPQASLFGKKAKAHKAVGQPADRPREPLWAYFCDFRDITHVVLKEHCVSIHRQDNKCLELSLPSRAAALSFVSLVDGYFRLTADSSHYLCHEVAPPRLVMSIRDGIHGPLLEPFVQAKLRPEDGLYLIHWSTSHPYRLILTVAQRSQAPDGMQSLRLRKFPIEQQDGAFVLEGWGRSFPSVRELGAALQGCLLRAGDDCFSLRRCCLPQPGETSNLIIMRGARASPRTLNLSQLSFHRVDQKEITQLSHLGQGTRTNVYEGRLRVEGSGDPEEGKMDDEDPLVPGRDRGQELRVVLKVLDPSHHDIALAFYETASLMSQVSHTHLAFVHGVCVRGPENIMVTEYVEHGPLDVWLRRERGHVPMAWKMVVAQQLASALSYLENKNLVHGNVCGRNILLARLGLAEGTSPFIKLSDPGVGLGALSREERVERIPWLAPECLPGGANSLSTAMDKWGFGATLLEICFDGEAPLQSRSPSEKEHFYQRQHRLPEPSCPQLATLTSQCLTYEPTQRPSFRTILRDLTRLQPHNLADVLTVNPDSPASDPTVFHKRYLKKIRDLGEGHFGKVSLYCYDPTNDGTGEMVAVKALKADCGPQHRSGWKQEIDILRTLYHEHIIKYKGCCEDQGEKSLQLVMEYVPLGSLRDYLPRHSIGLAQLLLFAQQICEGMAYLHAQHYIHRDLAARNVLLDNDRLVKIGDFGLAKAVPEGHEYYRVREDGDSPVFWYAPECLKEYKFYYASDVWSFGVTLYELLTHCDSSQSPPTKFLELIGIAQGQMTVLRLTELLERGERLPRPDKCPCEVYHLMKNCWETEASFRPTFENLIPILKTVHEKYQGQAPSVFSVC", "assay": "TYK2 kinase inhibition (Table A1)"}, "[1]": {"biological_target": "T1, human JAK3 (a.a. 781-1124) (Homo sapiens, UniProt P52333)", "T1 construct": "JAK3 (a.a. 781-1124); His tag (N); made in house; host or cells: insect cells (baculovirus)", "T1 sequence (P52333 781-1124)": "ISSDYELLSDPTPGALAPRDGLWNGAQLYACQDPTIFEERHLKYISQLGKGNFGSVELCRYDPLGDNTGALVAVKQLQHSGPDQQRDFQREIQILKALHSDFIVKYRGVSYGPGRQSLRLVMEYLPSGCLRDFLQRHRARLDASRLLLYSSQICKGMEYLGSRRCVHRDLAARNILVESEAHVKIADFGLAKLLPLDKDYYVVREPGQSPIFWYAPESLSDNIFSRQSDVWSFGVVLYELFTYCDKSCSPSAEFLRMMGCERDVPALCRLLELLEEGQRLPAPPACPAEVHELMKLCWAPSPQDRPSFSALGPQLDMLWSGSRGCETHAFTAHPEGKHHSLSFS", "assay": "In vitro JAK kinase assay (HTRF, phosphorylation of a biotinylated peptide), JAK3", "how_it_was_run": "(§1)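 Kinase reactions ran at room temperature for 1 h with ATP matched per isoform (JAK1 90 μM, JAK2 30 μM, JAK3 3 μM). After an EDTA stop, the phosphorylated biotin-peptide was read by HTRF using Eu-Py20 and SA-APC after 40 min binding.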"}, "[2]": {"biological_target": "T2, human JAK2 (a.a. 828-1132) (Homo sapiens, UniProt O60674)", "T2 construct": "JAK2 (a.a. 828-1132); His tag (N); made in house; host or cells: insect cells (baculovirus)", "T2 sequence (O60674 828-1132)": "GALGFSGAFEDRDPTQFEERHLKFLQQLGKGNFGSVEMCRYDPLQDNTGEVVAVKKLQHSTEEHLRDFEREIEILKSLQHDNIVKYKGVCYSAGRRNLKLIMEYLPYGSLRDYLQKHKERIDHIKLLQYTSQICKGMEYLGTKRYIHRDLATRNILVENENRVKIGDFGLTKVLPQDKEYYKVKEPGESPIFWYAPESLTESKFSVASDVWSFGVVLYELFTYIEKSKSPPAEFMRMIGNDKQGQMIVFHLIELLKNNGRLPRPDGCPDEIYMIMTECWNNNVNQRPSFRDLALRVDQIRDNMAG", "assay": "In vitro JAK kinase assay (HTRF, phosphorylation of a biotinylated peptide), JAK2", "how_it_was_run": "as §1"}, "[3]": {"biological_target": "T3, human JAK1 (a.a. 837-1142) (Homo sapiens, UniProt P23458)", "T3 construct": "human JAK1 (a.a. 837-1142); His tag (N); made in house; host or cells: insect cells (baculovirus)", "T3 sequence (P23458 849-1154)": "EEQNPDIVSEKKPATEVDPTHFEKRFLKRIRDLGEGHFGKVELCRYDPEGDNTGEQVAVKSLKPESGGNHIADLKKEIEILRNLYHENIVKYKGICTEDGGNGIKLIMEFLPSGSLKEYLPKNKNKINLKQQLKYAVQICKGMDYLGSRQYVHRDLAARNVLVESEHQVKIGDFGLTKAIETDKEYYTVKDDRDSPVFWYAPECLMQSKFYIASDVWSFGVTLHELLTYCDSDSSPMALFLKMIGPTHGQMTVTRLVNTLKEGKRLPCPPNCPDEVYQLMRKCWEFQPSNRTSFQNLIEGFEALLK", "assay": "In vitro JAK kinase assay (HTRF, phosphorylation of a biotinylated peptide), JAK1", "conditions": "read-out: JAK1 IC50", "how_it_was_run": "as §1"}},
  "note": "pIC50: −log10 of the molar value. Where a name gives a salt, the structure may show the parent alone. Read-outs that look alike come from different tables or passages of the source.",
  "data": [
    {"smiles": "O=C(Nc1cccc(C(F)(F)F)c1)N1CCN(c2ccc3cc2CCc2cccc(c2)Nc2ncc(Cl)c(n2)N3)CC1", "note": "[Example D91, 4-[6-Chloro-2,4,8,22-tetraazatetracyclo[14.3.1.1(3,7).1(9,13)]docosa-1(20),3(22),4,6,9(21),10,12,16,18-nonaen-12-yl]-N-[3-(trifluoromethyl)phenyl]piperazine-1-carboxamide bis(trifluoroacetate)]", "values": [
      {"measurement": "pIC50", "setting": "TYK2; Table D1", "result": 6.81},
      {"measurement": "pIC50", "setting": "[1]; Table D1", "result": 6.88},
      {"measurement": "pIC50", "setting": "[2]; Table D1", "result": 7.49},
      {"measurement": "pIC50", "setting": "[3]; Table D1", "result": 6.84}
    ]},
    {"smiles": "O=C(COc1ccc2cc1CCc1cncc(c1)Nc1ncc(Cl)c(n1)N2)N1CCN(C(=O)c2ccc(F)cc2F)CC1", "note": "[Example D259, 6-Chloro-12-{2-[4-(2,4-difluorobenzoyl)piperazin-1-yl]-2-oxoethoxy}-2,4,8,18,22-pentaazatetracyclo[14.3.1.1(3,7).1(9,13)]docosa-1(20),3(22),4,6,9(21),10,12,16,18-nonaene bis(trifluoroacetate)]", "values": [
      {"measurement": "pIC50", "setting": "TYK2; Table D1", "result": "< 6.40"},
      {"measurement": "pIC50", "setting": "[1]; Table D1", "result": "< 6.40"},
      {"measurement": "pIC50", "setting": "[2]; Table D1", "result": 7.43},
      {"measurement": "pIC50", "setting": "[3]; Table D1", "result": 7.38}
    ]},
    {"smiles": "O=C(CC1CN(c2nncs2)C1)Nc1ccc2cc1CCc1cncc(c1)Nc1ncc(Cl)c(n1)N2", "note": "[Example D151, N-[6-Chloro-2,4,8,18,22-pentaazatetracyclo[14.3.1.1(3,7).1(9,13)]docosa-1(20),3(22),4,6,9(21),10,12,16,18-nonaen-12-yl]-2-[1-(1,3,4-thiadiazol-2-yl)azetidin-3-yl]acetamide tris(trifluoroacetate)]", "values": [
      {"measurement": "pIC50", "setting": "TYK2; Table D1", "result": "< 6.70"},
      {"measurement": "pIC50", "setting": "[1]; Table D1", "result": "< 6.70"},
      {"measurement": "pIC50", "setting": "[2]; Table D1", "result": "< 6.70"},
      {"measurement": "pIC50", "setting": "[3]; Table D1", "result": 7.12}
    ]},
    {"smiles": "COc1ccccc1N1CCN(C(=O)COc2ccc3cc2CCc2cncc(c2)Nc2ncc(Cl)c(n2)N3)CC1", "note": "[Example D241, 6-Chloro-12-{2-[4-(2-methoxyphenyl)piperazin-1-yl]-2-oxoethoxy}-2,4,8,18,22-pentaazatetracyclo[14.3.1.1(3,7).1(9,13)]docosa-1(20),3(22),4,6,9(21),10,12,16,18-nonaene tris(trifluoroacetate)]", "values": [
      {"measurement": "pIC50", "setting": "TYK2; Table D1", "result": "< 6.40"},
      {"measurement": "pIC50", "setting": "[1]; Table D1", "result": "< 6.40"},
      {"measurement": "pIC50", "setting": "[2]; Table D1", "result": 6.74},
      {"measurement": "pIC50", "setting": "[3]; Table D1", "result": 7.39}
    ]},
    {"smiles": "Cc1ccnc(N2CCN(C(=O)COc3ccc4cc3CCc3cncc(c3)Nc3ncc(Cl)c(n3)N4)CC2)c1", "note": "[Example D237, 6-Chloro-12-{2-[4-(4-methylpyridin-2-yl)piperazin-1-yl]-2-oxoethoxy}-2,4,8,18,22-pentaazatetracyclo[14.3.1.1(3,7).1(9,13)]docosa-1(20),3(22),4,6,9(21),10,12,16,18-nonaene tris(trifluoroacetate)]", "values": [
      {"measurement": "pIC50", "setting": "TYK2; Table D1", "result": "< 6.40"},
      {"measurement": "pIC50", "setting": "[1]; Table D1", "result": "< 6.40"},
      {"measurement": "pIC50", "setting": "[2]; Table D1", "result": 6.74},
      {"measurement": "pIC50", "setting": "[3]; Table D1", "result": 7.54}
    ]},
    {"smiles": "Cc1cc(C(=O)N2CCC(COc3ccc4cc3CCc3cncc(c3)Nc3ncc(Cl)c(n3)N4)CC2)no1", "note": "[Example D226, 6-Chloro-12-({1-[(5-methylisoxazol-3-yl)carbonyl]piperidin-4-yl}methoxy)-2,4,8,18,22-pentaazatetracyclo[14.3.1.1(3,7).1(9,13)]docosa-1(20),3(22),4,6,9(21),10,12,16,18-nonaene bis(trifluoroacetate)]", "values": [
      {"measurement": "pIC50", "setting": "TYK2; Table D1", "result": "< 6.40"},
      {"measurement": "pIC50", "setting": "[1]; Table D1", "result": "< 6.40"},
      {"measurement": "pIC50", "setting": "[2]; Table D1", "result": "< 6.40"},
      {"measurement": "pIC50", "setting": "[3]; Table D1", "result": 6.59}
    ]},
    {"smiles": "O=C(Nc1cccs1)N1CCC(CCOc2ccc3cc2CCc2cncc(c2)Nc2ncc(Cl)c(n2)N3)CC1", "note": "[Example D167, 4-(2-{[6-Chloro-2,4,8,18,22-pentaazatetracyclo[14.3.1.1(3,7).1(9,13)]docosa-1(20),3(22),4,6,9(21),10,12,16,18-nonaen-12-yl]oxy}ethyl)-N-2-thienylpiperidine-1-carboxamide bis(trifluoroacetate)]", "values": [
      {"measurement": "pIC50", "setting": "TYK2; Table D1", "result": "< 6.40"},
      {"measurement": "pIC50", "setting": "[1]; Table D1", "result": "< 6.40"},
      {"measurement": "pIC50", "setting": "[2]; Table D1", "result": 6.61},
      {"measurement": "pIC50", "setting": "[3]; Table D1", "result": 7.24}
    ]},
    {"smiles": "O=C(Cn1c(=O)oc2c3cc(cc21)Nc1nc(ncc1Cl)Nc1cccc(c1)CC3)Nc1ccccc1", "note": "[Example D185, 2-[4-Chloro-19-oxo-18-oxa-2,6,8,20,25-pentaazapentacyclo[14.6.1.1(3,7).1(9,13).0(17,21)]pentacosa-1(23),3(25),4,6,9(24),10,12,16,21-nonaen-20-yl]-N-phenylacetamide trifluoroacetate]", "values": [
      {"measurement": "pIC50", "setting": "TYK2; Table D1", "result": 6.13},
      {"measurement": "pIC50", "setting": "[1]; Table D1", "result": 6.71},
      {"measurement": "pIC50", "setting": "[2]; Table D1", "result": 7.31},
      {"measurement": "pIC50", "setting": "[3]; Table D1", "result": 6.97}
    ]},
    {"smiles": "CC(=O)N1CCC(COc2ccc3cc2CCc2cncc(c2)Nc2ncc(Cl)c(n2)N3)CC1", "note": "[Example D227, 12-[(1-Acetylpiperidin-4-yl)methoxy]-6-chloro-2,4,8,18,22-pentaazatetracyclo[14.3.1.1(3,7).1(9,13)]docosa-1(20),3(22),4,6,9(21),10,12,16,18-nonaene bis(trifluoroacetate)]", "values": [
      {"measurement": "pIC50", "setting": "TYK2; Table D1", "result": "< 6.40"},
      {"measurement": "pIC50", "setting": "[1]; Table D1", "result": "< 6.40"},
      {"measurement": "pIC50", "setting": "[2]; Table D1", "result": 6.83},
      {"measurement": "pIC50", "setting": "[3]; Table D1", "result": 7.14}
    ]},
    {"smiles": "O=C(c1cccs1)N1Cc2cccc(c2)Nc2ncc(Cl)c(n2)Nc2cccc1c2", "note": "[Example C25, 6-Chloro-14-(2-thienylcarbonyl)-2,4,8,14,22-pentaazatetracyclo[14.3.1.1(3,7).1(9,13)]docosa-1(20),3(22),4,6,9(21),10,12,16,18-nonaene]", "values": [
      {"measurement": "pIC50", "setting": "TYK2", "result": 6.10},
      {"measurement": "pIC50", "setting": "[1]", "result": "< 5.00"},
      {"measurement": "pIC50", "setting": "[2]", "result": 6.76},
      {"measurement": "pIC50", "setting": "[3]", "result": 7.04}
    ]},
    {"smiles": "CS(=O)(=O)N1CC(CC(=O)Nc2ccc3cc2CCc2cncc(c2)Nc2ncc(Cl)c(n2)N3)C1", "note": "[Example D146, N-[6-Chloro-2,4,8,18,22-pentaazatetracyclo[14.3.1.1(3,7).1(9,13)]docosa-1(20),3(22),4,6,9(21),10,12,16,18-nonaen-12-yl]-2-[1-(methylsulfonyl)azetidin-3-yl]acetamide bis(trifluoroacetate)]", "values": [
      {"measurement": "pIC50", "setting": "TYK2; Table D1", "result": 6.57},
      {"measurement": "pIC50", "setting": "[1]; Table D1", "result": "< 6.00"},
      {"measurement": "pIC50", "setting": "[2]; Table D1", "result": 6.83},
      {"measurement": "pIC50", "setting": "[3]; Table D1", "result": 7.62}
    ]},
    {"smiles": "O=C(Cc1nnn[nH]1)Nc1ccc2cc1CCc1cccc(c1)Nc1ncc(Cl)c(n1)N2", "note": "[Example C31, N-[6-Chloro-2,4,8,22-tetraazatetracyclo[14.3.1.1(3,7).1(9,13)]docosa-1(20),3(22),4,6,9(21),10,12,16,18-nonaen-12-yl]-2-(1H-tetrazol-5-yl)acetamide trifluoroacetate]", "values": [
      {"measurement": "pIC50", "setting": "TYK2", "result": 6.32},
      {"measurement": "pIC50", "setting": "[1]", "result": 6.39},
      {"measurement": "pIC50", "setting": "[2]", "result": 7.62},
      {"measurement": "pIC50", "setting": "[3]", "result": 6.85}
    ]},
    {"smiles": "COCC(=O)N1CCN(C(=O)COc2ccc3cc2CCc2cncc(c2)Nc2ncc(Cl)c(n2)N3)CC1", "note": "[Example D262, 6-Chloro-12-{2-[4-(methoxyacetyl)piperazin-1-yl]-2-oxoethoxy}-2,4,8,18,22-pentaazatetracyclo[14.3.1.1(3,7).1(9,13)]docosa-1(20),3(22),4,6,9(21),10,12,16,18-nonaene bis(trifluoroacetate)]", "values": [
      {"measurement": "pIC50", "setting": "TYK2; Table D1", "result": "< 6.40"},
      {"measurement": "pIC50", "setting": "[1]; Table D1", "result": "< 6.40"},
      {"measurement": "pIC50", "setting": "[2]; Table D1", "result": "< 6.40"},
      {"measurement": "pIC50", "setting": "[3]; Table D1", "result": 6.82}
    ]},
    {"smiles": "Cc1ccc(C(=O)N2Cc3cccc(c3)Nc3ncc(Cl)c(n3)Nc3cccc2c3)cc1", "note": "[Example C24, 6-Chloro-14-(4-methylbenzoyl)-2,4,8,14,22-pentaazatetracyclo[14.3.1.1(3,7).1(9,13)]docosa-1(20),3(22),4,6,9(21),10,12,16,18-nonaene]", "values": [
      {"measurement": "pIC50", "setting": "TYK2", "result": 5.99},
      {"measurement": "pIC50", "setting": "[1]", "result": 5.92},
      {"measurement": "pIC50", "setting": "[2]", "result": 6.81},
      {"measurement": "pIC50", "setting": "[3]", "result": 7.02}
    ]},
    {"smiles": "O=C(COc1ccc2cc1CCc1cncc(c1)Nc1ncc(Cl)c(n1)N2)N1CCN(C(=O)c2ccno2)CC1", "note": "[Example D260, 6-Chloro-12-{2-[4-(isoxazol-5-ylcarbonyl)piperazin-1-yl]-2-oxoethoxy}-2,4,8,18,22-pentaazatetracyclo[14.3.1.1(3,7).1(9,13)]docosa-1(20),3(22),4,6,9(21),10,12,16,18-nonaene bis(trifluoroacetate)]", "values": [
      {"measurement": "pIC50", "setting": "TYK2; Table D1", "result": 6.54},
      {"measurement": "pIC50", "setting": "[1]; Table D1", "result": "< 6.40"},
      {"measurement": "pIC50", "setting": "[2]; Table D1", "result": 7.66},
      {"measurement": "pIC50", "setting": "[3]; Table D1", "result": 7.82}
    ]}
  ]
}
